Laboratory results reported in patent publication US8815266B2, “Peptide derivatives useful in the treatment, care or cleansing of the skin, mucosae, scalp or nails” (Lipotech, S.A., priority 2008, dated 2014).
Non-standard residues stand in square brackets, D forms with d. *: point of attachment. Palmitoyl = CCCCCCCCCCCCCCCC(=O)*; Ahx = NCCCCCC(=O)O

Assays:
hBD2 mRNA = assay: Quantification of hBD2 mRNA in human keratinocytes by real-time quantitative RT-PCR; assay type: cell-based; conditions: 16 h-24 h
Procedure: Quantification of the hBD2 mRNA secreted in human keratinocytes after incubation with Ac-L-Glu-L-Met-L-Ala-L-Ile-OH (Ac-SEQ ID No. 3-OH), Ac-L-Arg-Phg-Phg-OH and Ac-L-Arg-Ahx-L-Ala-OH.
(§1) The quantification of the amount of mRNA secreted was carried out by means of a real-time quantitative RT-PCR assay. 3×10^6 cells of a human keratinocyte line were used, seeded in 25 cm^2 flasks. The cells were washed and incubated for 16 h-24 h with different peptide derivatives at a concentration of 1 mm or 0.25 mm in a volume of 3 mL of DMEM medium. LPS (100 μg/mL) and L-Ile (200 μg/mL) were used as positive controls. The supernatants of the cells were stored at −80° C., to analyze the secreted hBD2 protein level and the total RNA was extracted from the cells with the RNeasy kit (Quiagen) following the protocol of the commercial company.
A retrotranscription reaction was carried out in a Mastercycler thermal cycler from 1 μg of total RNA of each sample, using the GeneAmp RNA PCR kit (Applied Biosystems) according to the protocol of the commercial company, and subsequently a real-time PCR was carried out by means of the assay with the SYBR Green I fluorophore in an ABI PRIS M 7700 Sequence Detector (Applied Biosystems).
The amount of mRNA was quantified by standardizing normalizing it with respect to the values of endogenous 18S ribosomal RNA. These values were in turn standardized with respect to the untreated cells and they were represented as the relative hBD2 mRNA level.

hBD2 promoter = assay: Activation of the hBD2 promoter (luciferase activity assay) in a stable A549 cell line; assay type: cell-based, human
Procedure: Assay of activation of the hBD2 promoter in a stable cell line by the compounds of general formula (I) obtained in Example 5.
The A549 human epithelial cell line was cultured using RPMI-1640 medium supplemented with FBS and Penicillin-Streptomycin. It was routinely cultured by dividing the cultures twice a week at a 1:10 dilution using Trypsin-EDTA. 10^6 cells of the A549 line were seeded in a 60 mm disc treated with polylysine. After 24 h they were cotransfected with 10 μg of a gene construct formed by the hBD2 gene promoter followed by the luciferase protein gene (pGL3-hBD2promotor-Luc), and the pcDNA3B plasmid DNA containing the geneticin antibiotic resistance gene, at a 1:5 pcDNA3B.1/pGL3-hBD2promotor-Luc ratio. 25 μL of Lipofectamine™ 2000 were used for the transfection. After 24 h the selection was started with complete medium supplemented with the G418-Geneticin® antibiotic, the selection medium being renewed every 2 days. Different clones were isolated, which were characterized and selected based on the luciferase activity.
The selected stable lines were cultured using complete medium for the parental line supplemented with G418. They were routinely cultured by dividing the cultures twice a week at a 1:10 dilution using Trypsin-EDTA.
The capacity to activate the hBD2 promoter was determined by means of the luciferase activity assay since a transcriptional agent inducing hBD2 synthesis causes luciferase enzyme production by means of activating the hBD2 gene promoter contained in the pGL3-hBD2promotor-Luc construct, a luminescence increase being observed. The selected stable cell lines were seeded at 20,000 cells per plate. After 24 h the plates were washed and incubated for 24 h in modified RPMI-1640 medium without L-Isoleucine with different peptide derivatives at a concentration of 0.5 mM. LPS (100 μg/mL) and L-Isoleucine (25 μg/mL) were used as positive controls with the same treatment as the peptide derivatives. Once the incubation period had ended, the Steady-Glo Luciferase Assay System reagent (Promega Corp.) was added to the cells, following the protocol of the commercial company. The luminescent signal (ULAs/s) produced by the reaction between the luciferase and its substrate was quantified with a LUMIstar Galaxy plate luminometer (BMG Labtechnologies). Based on the values of luciferase activity (ULAs/s), standardized with the negative controls, the activation of the hBD2 promoter was determined.

hBD2 = assay: Quantification of hBD2 secreted by human keratinocytes by ELISA; assay type: cell-based
Procedure: as §1
Quantification of the hBD2 secreted in human keratinocytes after incubation with Ac-L-Glu-L-Met-L-Ala-L-Ile-OH (Ac-SEQ ID No. 3-OH), Ac-L-Arg-Phg-Phg-OH and Ac-L-Arg-Ahx-L-Ala-OH.
The amount of hBD2 secreted by human keratinocytes was quantified by means of an ELISA assay using the Human BD-2 ELISA Development commercial kit (Peprotech) from the supernatants of the cells coming from Example 15.
Based on the absorbance data obtained, the hBD2 protein level was calculated after the calibration with recombinant hBD2. The values of hBD2 obtained were standardized with respect to the values of the control assays (untreated cells).

[1] = 0.25 mM peptide, normalized to 18S rRNA and untreated cells (CONTROL 100%)
[2] = peptide derivative 0.5 mM, 24 h incubation, A549 pGL3-hBD2promotor-Luc stable line, standardized with negative controls (CONTROL 100%)
[3] = 0.25 mm peptide, supernatants of human keratinocytes from Example 15, standardized to untreated cells (CONTROL 100%)

Compound | Relative hBD2 mRNA level (hBD2 mRNA; [1]) | LUMINESCENCE INCREASE (hBD2 promoter; [2]) | Relative hBD2 level (hBD2; [3]) | also measured
CC[C@H](C)[C@H](N)C(=O)O [L-Ile, L-Isoleucine, reference compound] | – | – | – | Relative hBD2 mRNA level (hBD2 mRNA; positive control L-Ile 200 μg/mL, CONTROL 100%): 125%; LUMINESCENCE INCREASE (hBD2 promoter; positive control L-Isoleucine 25 μg/mL, 24 h, A549 stable line, CONTROL 100%): 127%; Relative hBD2 level (hBD2; positive control L-Ile 200 μg/mL, keratinocyte supernatants, CONTROL 100%): 134%
Ac-Arg-[Ahx]-Ala-OH | 126% | 137% | 126% | –
Ac-L-Arg-Phg-Phg-OH | 201% | 120% | 116% | –
Ac-L-Glu-L-Met-L-Ala-L-Ile-OH (Ac-EMAI-OH) | – | 196% | – | Relative hBD2 mRNA level (hBD2 mRNA; 1 mm peptide, normalized to 18S rRNA and untreated cells (CONTROL 100%)): 323%; Relative hBD2 level (hBD2; 1 mm peptide, supernatants of human keratinocytes from Example 15, standardized to untreated cells (CONTROL 100%)): 129%
H-L-Glu-L-Met-L-Ala-L-Ile-OH (H-EMAI-OH) | – | 125% | – | –
Palm-L-Glu-L-Met-L-Ala-L-Ile-NH2 (Palmitoyl-EMAI-NH2; SMILES CCCCCCCCCCCCCCCC(=O)N[C@@H](CCC(=O)O)C(=O)N[C@@H](CCSC)C(=O)N[C@@H](C)C(=O)N[C@H](C(N)=O)[C@@H](C)CC) | – | 137% | – | –
